Results published in patent US7872006B2, “Pyrazole compounds having cannabinoid receptor (CB1) antagonizing activity” (Mitsubishi Tanabe Pharma Corporation, priority 2005, dated 2011).

target: T1, Human CB1 receptor (Homo sapiens, UniProt P21554); test: Human CB1 receptor binding assay ([3H]-CP55940 displacement); conditions: not given
T1 construct: host or cells: CHO cells; the membrane fraction was prepared in house from the purchased recombinant line
Method: [Human CB1 Receptor Binding Assay]
(1) Preparation of human CB1 receptor (membrane fraction):
Human CB1-expressing cell line: hCB1/CHO#C3 (Euroscreen)
The receptor-expressing cells cultivated in the above medium were washed with phosphate buffer (×2) and thereto was added Buffer A (2 mL) under ice-cooling or 4° C. (the following procedures were also carried out at the same temperature). The cells were collected by using a cell-scraper, treated by a microtip-type ultrasonicator for 20 seconds (pulse-on: 2 sec, pulse-off: 1 sec) and centrifuged (500×g, 15 min). The supernatant was separated and centrifuged (43000×g, 60 min). The resultant pellet was suspended in Buffer A and homogenized with a potter-type homogenizer. To the homogenate was added an equal volume of 80% glycerol and stored at −80° C.
(2) Procedure of CB1 Receptor Binding Assay:
Radioligand: [^3H]-CP55940 (30 nM/7992 dpm/μL) prepared by diluting 8.3 µM solution of the radioligand with Buffer B
Each well of the assay plate (96-well, Costar Code#3371) was filled with Buffer B (140 μL), a solution of each test compound in dimethylsulfoxide (20 μL, […]), radioligand (20 μL) and membrane preparation (20 μL, 0.5 µg/20 μL) and the mixture was incubated at 30° C. for 90 minutes to proceed the binding reaction. The reaction mixture was harvested to each well of a plate presoaked with the above coating solution (Packard Unifilter GF/B, #6005177). The plate was washed with Buffer C (200 μL×10) and dried at 50° C. for 1 hour and Microscinti 40 (40 μL) was added to each well. The bound radiolabel was quantitated by scintilation counting (Top Count NXT, Packard). IC50 value of each test compound against the radioligand-binding to CB1 receptors was calculated on the basis of the quantitated radiolabel activity by using Graphpad Prism 3.02.

T1 sequence (P21554 whole entry): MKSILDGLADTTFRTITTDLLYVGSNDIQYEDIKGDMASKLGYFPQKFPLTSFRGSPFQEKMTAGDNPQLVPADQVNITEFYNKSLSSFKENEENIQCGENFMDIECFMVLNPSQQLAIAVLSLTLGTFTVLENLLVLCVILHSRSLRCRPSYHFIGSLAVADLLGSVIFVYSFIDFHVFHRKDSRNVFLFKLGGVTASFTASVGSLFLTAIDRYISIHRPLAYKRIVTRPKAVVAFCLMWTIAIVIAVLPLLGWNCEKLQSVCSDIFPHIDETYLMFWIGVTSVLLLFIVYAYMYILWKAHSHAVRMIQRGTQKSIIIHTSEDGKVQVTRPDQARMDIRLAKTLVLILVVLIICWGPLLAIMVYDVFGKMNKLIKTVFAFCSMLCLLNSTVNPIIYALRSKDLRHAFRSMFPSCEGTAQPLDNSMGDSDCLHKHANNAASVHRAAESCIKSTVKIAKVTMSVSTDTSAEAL

| Compound | IC50 [nM] |
| --- | --- |
| COc1c(C(=O)NN2CCN(c3ccc(C(F)F)cn3)CC2)nn(-c2ccccc2Cl)c1-c1ccc(Cl)cc1 [Example 339, 1-(2-chlorophenyl)-5-(4-chlorophenyl)-3-[N-[4-(5-difluoromethyl-pyridin-2-yl)piperazin-1-yl]carbamoyl]-4-methoxy-1H-pyrazole] | 10 to 100 |
| COc1c(C(=O)NC2CCCC2)nn(-c2ccccc2Cl)c1-c1ccc(Cl)cc1 [Example 55] | 10 to 100 |

same assay, conditions: radioligand [3H]-CP55940, membrane fraction of hCB1/CHO cells, 30° C. for 90 minutes; read-out: IC50

| IC50 [nM] | Compound |
| --- | --- |
| < 10 | O=C(NN1CCC(F)(F)CC1)c1nn(-c2ccccc2Cl)c(-c2ccc(Cl)cc2)c1OC(F)F [Example 307] |
| 10 to 100 | COc1c(C(=O)NN(C)C)nn(-c2ccccc2Cl)c1-c1ccc(C(F)(F)F)cc1 [Example 134] |
| 10 to 100 | NC(=O)COc1c(C(=O)NN2CCC(C(N)=O)(c3ccccc3)CC2)nn(-c2ccccc2Cl)c1-c1ccc(Cl)cc1 [Example 276, 1-(2-chlorophenyl)-5-(4-chloro-phenyl)-4-carbamoylmethoxy-3-[N-(4-carbamoyl-4-phenylpiperidin-1-yl)carbamoyl]-1H-pyrazole] |
| 10 to 100 | COc1c(C(=O)NCC(F)(F)F)nn(-c2ccccc2Cl)c1-c1ccc(Cl)cc1 [Example 4] |
| 10 to 100 | COc1c(C(=O)NN2CCN(C(=O)c3ccc(F)cc3F)CC2)nn(-c2ccccc2Cl)c1-c1ccc(Cl)cc1 [Example 216] |
| 10 to 100 | CCNC1(C(N)=O)CCN(C(=O)c2nn(-c3ccccc3Cl)c(-c3ccc(Cl)cc3)c2O)CC1 [Example 279, 1-(2-chlorophenyl)-5-(4-chlorophenyl)-4-hydroxy-3-[[4-carbamoyl-4-(ethylamino)piperidino]carbonyl]-1H-pyrazole] |
| 10 to 100 | COCCOc1c(C(=O)NN2CCCC2)nn(-c2ccccc2Cl)c1-c1ccc(C(F)(F)F)cc1 [Example 148] |
| 100 to 500 | CCNC(=O)NCCOc1c(C(=O)NN2CCCC2)nn(-c2ccccc2Cl)c1-c1ccc(Cl)cc1 [Example 288, 1-(2-chlorophenyl)-5-(4-chlorophenyl)-4-[2-(N′-ethylureido)ethoxy]-3-[N-(1-pyrrolidinyl)carbamoyl]-1H-pyrazole] |

| Compound | IC50 [nM] |
| --- | --- |
| 1-(2-chlorophenyl)-5-(4-chlorophenyl)-4-hydroxy-3-[N′-(4-tetrahydropyranyl)ureido]-1H-pyrazole [Example 18] | 10 to 100 |
| COc1c(C(=O)CN2CCS(=O)(=O)CC2)nn(-c2ccccc2Cl)c1-c1ccc(Cl)cc1 [Example 36, 1-(2-chlorophenyl)-5-(4-chlorophenyl)-4-methoxy-3-[1-(1,1-dioxothiomorpholino)acetyl]-1H-pyrazole] | 10 to 100 |
